Data on one molecule can be found in patent US20080004273A1, “Inhibitors of protein tyrosine kinase activity” (priority 2006, published 2008).

The test system of one experiment is MNNGHOS tumor xenograft. Description: In vivo solid tumor disease model, MNNGHOS tumor xenograft. The conditions noted are these: MNNGHOS xenograft in mice, dosed orally at 40 mg/kg in PEG 400/0.1 N HCl in saline (40:60). From the text:
In Vivo Solid Tumor Disease Model
This test measures the capacity of compounds to inhibit solid tumor growth.
Tumor xenografts are established in the flank of female athymic CDl mice (Charles River Inc.), by subcutaneous injection of 1X10^6 cells/mouse. Once established, tumors are then serially passaged s.c. in nude mice hosts. Tumor fragments from these host animals are used in subsequent compound evaluation experiments. For compound evaluation experiments female nude mice weighing approximately 20 g are implanted s.c. by surgical implantation with tumor fragments of 30 mg from donor tumors. When the tumors are approximately 100 mm^3 in size (˜7-10 days following implantation), the animals are randomized and separated into treatment and control groups. Each group contains 6-8 tumor-bearing mice, each of which is ear-tagged and followed individually throughout the experiment.
Mice are weighed and tumor measurements are taken by calipers three times weekly, starting on Day 1. These tumor measurements are converted to tumor volume by the well-known formula […]. The experiment is terminated when the control tumors reach a size of approximately 1500 mm^3. […] In addition to tumor volumes, body weight of animals is monitored twice weekly for up to 3 weeks. […]

In a further experiment the test system is DU145. Description: DU145 scattering inhibition. The conditions noted are these: Homo sapiens, DU-145, read-out: Potency in cell-based assays DU145 scattering inhibition.

With `COc1cc2nccc(Oc3ccc(NC(=O)N4CCN(c5ccccc5)C4=O)cc3F)c2cc1OC` [Example 2, N-(4-(6,7-Dimethoxyquinolin-4-yloxy)-3-fluorophenyl)-2-oxo-3-phenylimidazolidine-1-carboxamide], in the experiment on MNNGHOS tumor xenograft, the effect on tumors entry was “full regression of the tumors” and the tumor growth inhibition is 112%. Moreover, the IC50 in the experiment with DU145 was 0.4 µM.
